Measurements from patent US20250127863A1, “ANTIMICROBIAL PEPTIDE FOR ONYCHOMYCOSIS” (CBMR SCIENTIFIC NANOSCIENCE B.V., priority 2019, published 2025).
No end group written: not given here.

How the values were obtained:
[1] = tested on: Crypt. neoform. ▴ SKN7 (UMC); experiment: MIC90 growth inhibition; format: cell-based, Cryptococcus neoformans; conditions: genetically modified type species, RPMI 1640 one-fourth strength
Method: (§1) The minimum inhibitory concentration (MIC) value is defined as the lowest sample concentration that inhibited growth. In the Examples, the MIC90 value is presented, which MIC90 values are determined according to established methods known to the person with the skills in the relevant art. Experiments; 1×10E5 CFU of various strains/ml were incubated for 24-48 h at 37° C. in 4× diluted medium of RPMI 1640 with the indicated concentrations of antimicrobial peptide hLF(1-11) [SEQ ID NO: 3]. As controls various strains cells were incubated for 24-48 h at 37° C. with no agent (antimicrobial peptide), and subsequently, growth of the microbial organism (e.g. yeast, bacterium) was monitored by using spectrophotometry with a spectrophotometer at 620 nm. […] ND=Not done. Representative single assay data are listed rather than a range, for clarity reasons and for ease of comparison of peptide efficacy. The MIC was calculated as the lowest antibiotic (antimicrobial peptide) concentration at which growth of the assessed yeast or bacterium (microbe) was inhibited (inhibitory concentration IC90).

Aspergillus sydowii = experiment: MIC90 growth inhibition; format: cell-based; conditions: RPMI 1640 one-fourth strength
Method: as §1

Cladosporium trichoides = experiment: MIC90 growth inhibition; format: cell-based; conditions: RPMI 1640 one-fourth strength
Method: as §1

Nannizia gypsea = experiment: MIC90 growth inhibition; format: cell-based; conditions: RPMI 1640 one-fourth strength
Method: as §1

Penicillium expansum = experiment: MIC90 growth inhibition; format: cell-based; conditions: RPMI 1640 one-fourth strength
Method: as §1

Mucor spp = experiment: MIC90 growth inhibition; format: cell-based; conditions: RPMI 1640 one-fourth strength
Method: as §1

Geotrichium spp = experiment: MIC90 growth inhibition; format: cell-based; conditions: RPMI 1640 one-fourth strength
Method: as §1

Trichophyton violaceum = experiment: MIC90 growth inhibition; format: cell-based; conditions: RPMI 1640 one-fourth strength
Method: as §1

[2] = tested on: Malassezia pachydermatis CBS 1880; experiment: MIC90 growth inhibition; format: cell-based; conditions: RPMI 1640 one-fourth strength
Method: as §1

Sporothrix schenckii = experiment: MIC90 growth inhibition; format: cell-based; conditions: RPMI 1640 one-fourth strength
Method: as §1

[3] = tested on: Trichophyton interdigitale; experiment: MIC90 growth inhibition; format: cell-based; conditions: RPMI 1640 one-fourth strength
Method: as §1

Epidermophyton floccosum = experiment: MIC90 growth inhibition; format: cell-based; conditions: RPMI 1640 one-fourth strength
Method: as §1

Streptococcus lactis = experiment: MIC90 growth inhibition; format: cell-based; conditions: RPMI 1640 one-fourth strength
Method: as §1

Malassezia globosa = experiment: MIC90 growth inhibition; format: cell-based; conditions: RPMI 1640 one-fourth strength
Method: as §1

Microsporum canis = experiment: MIC90 growth inhibition; format: cell-based; conditions: RPMI 1640 one-fourth strength
Method: as §1

[4] = tested on: Malassezia furfur CBS 1878; experiment: MIC90 growth inhibition; format: cell-based; conditions: RPMI 1640 one-fourth strength
Method: as §1

Fusarium oxysporum = experiment: MIC90 growth inhibition; format: cell-based; conditions: RPMI 1640 one-fourth strength
Method: as §1

Cryptococcus neoformans = experiment: MIC90 growth inhibition; format: cell-based; conditions: RPMI 1640 one-fourth strength
Method: as §1

Pichia membramfaciens = experiment: MIC90 growth inhibition; format: cell-based; conditions: RPMI 1640 one-fourth strength
Method: as §1

[5] = tested on: Malassezia furfur CBS 9595; experiment: MIC90 growth inhibition; format: cell-based; conditions: RPMI 1640 one-fourth strength
Method: as §1

Malassezia furfur spp. = experiment: MIC90 growth inhibition; format: cell-based; conditions: RPMI 1640 one-fourth strength
Method: as §1

Vibrio cholerae = experiment: MIC90 growth inhibition; format: cell-based; conditions: RPMI 1640 one-fourth strength
Method: as §1

[6] = tested on: Staphylococcus epidermidis; experiment: MIC90 growth inhibition; format: cell-based; conditions: RPMI 1640 one-fourth strength
Method: as §1

C. albicans CMC-1968 = experiment: MIC90 growth inhibition; format: cell-based, Candida albicans; conditions: RPMI 1640 one-fourth strength
Method: as §1

C. albicans CBS-562 = experiment: MIC90 growth inhibition; format: cell-based, Candida albicans; conditions: RPMI 1640 one-fourth strength
Method: as §1

C. albicans ATCC 10231 = experiment: MIC90 growth inhibition; format: cell-based, Candida albicans; conditions: RPMI 1640 one-fourth strength
Method: as §1

C. albicans AA (LUMC) = experiment: MIC90 growth inhibition; format: cell-based, Candida albicans; conditions: RPMI 1640 one-fourth strength
Method: as §1

C. albicans (WT) = experiment: MIC90 growth inhibition; format: cell-based, Candida albicans; conditions: RPMI 1640 one-fourth strength
Method: as §1

C. krusei (LUMC) = experiment: MIC90 growth inhibition; format: cell-based, Candida krusei; conditions: RPMI 1640 one-fourth strength
Method: as §1

C. krusei spp = experiment: MIC90 growth inhibition; format: cell-based, Candida krusei; conditions: RPMI 1640 one-fourth strength
Method: as §1

C. krusei CMC-2002 = experiment: MIC90 growth inhibition; format: cell-based, Candida krusei; conditions: RPMI 1640 one-fourth strength
Method: as §1

C. auris = experiment: MIC90 growth inhibition; format: cell-based, Candida auris; conditions: RPMI 1640 one-fourth strength
Method: as §1

C. tropicalis CBS-94 = experiment: MIC90 growth inhibition; format: cell-based, Candida tropicalis; conditions: RPMI 1640 one-fourth strength
Method: as §1

C. tropicalis CMC-2041 = experiment: MIC90 growth inhibition; format: cell-based, Candida tropicalis; conditions: RPMI 1640 one-fourth strength
Method: as §1

C. glabrata spp. = experiment: MIC90 growth inhibition; format: cell-based, Candida glabrata; conditions: RPMI 1640 one-fourth strength
Method: as §1

C. glabrata CBS-138 = experiment: MIC90 growth inhibition; format: cell-based, Candida glabrata; conditions: RPMI 1640 one-fourth strength
Method: as §1

C. glabrata CMC-1933 = experiment: MIC90 growth inhibition; format: cell-based, Candida glabrata; conditions: RPMI 1640 one-fourth strength
Method: as §1

C. glabrata (LUMC) = experiment: MIC90 growth inhibition; format: cell-based, Candida glabrata; conditions: RPMI 1640 one-fourth strength
Method: as §1

Trichoderma viride = experiment: IC50 growth inhibition; format: cell-based
C. haemulonii = experiment: MIC90 growth inhibition; format: cell-based, Candida haemulonii; conditions: RPMI 1640 one-fourth strength
Method: as §1

For “GRRRRSVQWCA [hLF1-11, Gly Arg Arg Arg Arg Ser Val Gln Trp Cys Ala]”, the “Inhibitory concentration MIC (MIC90)” value [1] was “MIC = 6.3 μg/ml”, the “Inhibitory concentration MIC (MIC90)” value (Aspergillus sydowii) was “MIC = 2.5-12.5 μg/ml” and the “Inhibitory concentration MIC (MIC90)” value (Cladosporium trichoides) was “MIC = 5 μg/ml”. The “Inhibitory concentration MIC (MIC90)” value (Nannizia gypsea) was “MIC = 30 μg/ml”, the “Inhibitory concentration MIC (MIC90)” value (Penicillium expansum) was “MIC = 16 μM” and the “Inhibitory concentration MIC (MIC90)” value (Mucor spp) was “MIC = 25-50 μg/mL”. The “Inhibitory concentration MIC (MIC90)” value (Geotrichium spp) was “MIC = 50 μg/mL”, the “Inhibitory concentration MIC (MIC90)” value (Trichophyton violaceum) was “MIC = 40 μg/ml” and the “Inhibitory concentration MIC (MIC90)” value [2] was “MIC = 25-50 μg/mL”. The “Inhibitory concentration MIC (MIC90)” value (Sporothrix schenckii) was “MIC = 2-10 μg/ml”, the “Inhibitory concentration MIC (MIC90)” value [3] was “MIC = 6.3-45 μg/ml” and the “Inhibitory concentration MIC (MIC90)” value (Epidermophyton floccosum) was “MIC = 0.31-2.5 μg/ml”. The “Inhibitory concentration MIC (MIC90)” value (Streptococcus lactis) was “MIC = 3.1 μg/ml”, the “Inhibitory concentration MIC (MIC90)” value (Malassezia globosa) was “MIC = 12.5-50 μg/mL” and the “Inhibitory concentration MIC (MIC90)” value (Microsporum canis) was “MIC = 40 μg/ml”. The “Inhibitory concentration MIC (MIC90)” value [4] was “MIC = 12.5-50 μg/mL”, the “Inhibitory concentration MIC (MIC90)” value (Fusarium oxysporum) was “MIC = 8-16 μM” and the “Inhibitory concentration MIC (MIC90)” value (Cryptococcus neoformans) was “MIC = 12.5-50 μg/mL”. For the same sequence, the “Inhibitory concentration MIC (MIC90)” value (Pichia membramfaciens) was “MIC = 45 μg/ml”, the “Inhibitory concentration MIC (MIC90)” value [5] was “MIC = 25-50 μg/mL” and the “Inhibitory concentration MIC (MIC90)” value (Malassezia furfur spp.) was “MIC = 12.5-50 μg/mL”. The “Inhibitory concentration MIC (MIC90)” value (Vibrio cholerae) was “MIC = 12.5 μg/ml”, the “Inhibitory concentration MIC (MIC90)” value [6] was “MIC = 3.1 μg/ml” and the “Inhibitory concentration MIC (MIC90)” value (C. albicans CMC-1968) was “MIC = 25 μg/mL”. For the same sequence, the “Inhibitory concentration MIC (MIC90)” value (C. albicans CBS-562) was “MIC = 25 μg/mL”, the “Inhibitory concentration MIC (MIC90)” value (C. albicans ATCC 10231) was “MIC = 25 μg/mL” and the “Inhibitory concentration MIC (MIC90)” value (C. albicans AA (LUMC)) was “MIC = 25 μg/mL”. For the same sequence, the “Inhibitory concentration MIC (MIC90)” value (C. albicans (WT)) was “MIC = 25 μg/ml”, the “Inhibitory concentration MIC (MIC90)” value (C. krusei (LUMC)) was “MIC = 25 μg/mL” and the “Inhibitory concentration MIC (MIC90)” value (C. krusei spp) was “MIC = 10-25 μg/ml”. The “Inhibitory concentration MIC (MIC90)” value (C. krusei CMC-2002) was “MIC = 25 μg/mL”, the “Inhibitory concentration MIC (MIC90)” value (C. auris) was “MIC = 12.5-25 μg/ml” and the “Inhibitory concentration MIC (MIC90)” value (C. tropicalis CBS-94; C. tropicalis CBS-94, second listing) was “MIC = 50 μg/ml”. The “Inhibitory concentration MIC (MIC90)” value (C. tropicalis CBS-94) was “MIC = 50 μg/mL”, the “Inhibitory concentration MIC (MIC90)” value (C. tropicalis CMC-2041; C. tropicalis CMC-2041, second listing) was “MIC = 50 μg/ml” and the “Inhibitory concentration MIC (MIC90)” value (C. tropicalis CMC-2041) was “MIC = 50 μg/mL”. For the same sequence, the “Inhibitory concentration MIC (MIC90)” value (C. glabrata spp.) was “MIC = 25 μg/mL”, the “Inhibitory concentration MIC (MIC90)” value (C. glabrata CBS-138) was “MIC = 25 μg/mL” and the “Inhibitory concentration MIC (MIC90)” value (C. glabrata CMC-1933) was “MIC = 25 μg/mL”. The “Inhibitory concentration MIC (MIC90)” value (C. glabrata (LUMC)) was “MIC = 25 μg/mL”, the “Inhibitory concentration IC50” value (Trichoderma viride) was “IC50 = 952 μg/mL” and the “Inhibitory concentration MIC (MIC90)” value (C. haemulonii) was “MIC = 25 μg/mL”.
